Test results: paper PMC4434051, “Biological evaluation of new potential anticancer agent for tumour imaging and radiotherapy by two methods: ^99mTc-radiolabelling and EPR spectroscopy” (Biotechnology, Biotechnological Equipment, 2014)

Assays:
[1] = cited from earlier work; for half-life: formerly reported
Lymphoma L1210 = tested on: Lymphoma L1210; parameters: method as in PMID 19081996, PMID 19718801, PMID 20097958; conditions: C57BL/Lymphoma L1210 bearing mice; cited from earlier work
[2] = cited from earlier work
[3] = cited from earlier work; remark: listed apart in the source
[4] = EPR organ and blood distribution of SLENU after i.p. administration; format: in vivo, male albino non-inbred mice; conditions: i.p. 40 mg/kg
Protocol: For EPR experiments of SLENU (administrated i.p. at a dose of 40 mg/kg) blood samples were taken from the free-streaming blood of a male albino non-inbred mice and were collected into heparinized tubes containing PBS (pH = 7–7.4). […] Decay-corrected radioactivity in the blood was expressed as per cent injected dose in the blood, using the total blood volume as 7% of the body weight. Animal protocols have been approved by the Bulgarian/Indian Institutional Animals ethics Committee.
First biodistribution study for EPR experiments of SLENU in organ homogenates (liver, lungs, spleen, pancreas, brain, kidneys) and blood was evaluated in male albino non-inbred mice (35–40 g body weight, normal diet) as previously described by. Spin-labelled nitrosourea was administrated i.p. at a dose of 40 mg/kg. Animals were decapitated at appropriate time points following injection (10, 30, 60, 90 min and on 4 h, 24 h) and dissected. Tissues from lungs, liver, spleen, brain, kidneys, pancreas and blood were collected and processed immediately. For nitrosourea extraction, samples were weighed and homogenized in PBS (10% w/v) and centrifuged at 2000 g for 15 min. Supernatants were collected and the concentration of nitrosourea was evaluated by EPR spectroscopy. Before measuring the spin-labelled concentration, the samples were […] by K3[Fe(CN6)] (a spectroscopic broadening reagent), because of the fast reduction of the nitroxide function (10–20 min) in the tissues.

| Compound | half-life [1] [h] | optimal dose for anticancer activity (Lymphoma L1210) [mg/kg] | alkylating activity [2] [A560/mmol/L/h] | alkylating activity relative to CCNU ([2]; formerly reported) | carbamoylating activity ([3]; EPR research) | carbamoylating activity relative to CCNU ([3]; formerly reported) | τ0.5 [1] [min] | time of maximum concentration in blood (EPR) ([4]; blood) [min] | time of maximum concentration in brain (EPR) ([4]; brain homogenate) [min] | time of maximum concentration in kidneys (EPR) ([4]; kidneys homogenate) [min] | time of maximum concentration in liver (EPR) ([4]; liver homogenate) [min] | time of maximum concentration in lungs (EPR) ([4]; lungs homogenate) [min] | time of maximum concentration in pancreas (EPR) ([4]; pancreas homogenate) [min] | time of maximum concentration in spleen (EPR) ([4]; spleen homogenate) [min] | presence of spin-labelled nitrosourea in tissues (EPR) ([4]; within 24 h, all tissues studied) |
| --- | --- | --- | --- | --- | --- | --- | --- | --- | --- | --- | --- | --- | --- | --- | --- |
| O=NN(CCCl)C(=O)NC1CCCCC1 [CCNU, 1-(2-chloroethyl)-3-cyclohexyl-1-nitrosourea, reference compound] | 0.9 |  |  |  |  |  |  |  |  |  |  |  |  |  |  |
| CCN(N=O)C(=O)NC1CC(C)(C)N([O])C(C)(C)C1 [SLENU, 1-ethyl-1-nitroso-3-[4-(2,2,6,6-tetramethylpiperidine-1-oxyl)]-urea] | 1.25 | 45 | 0.008 | lower than that of CCNU | 54.46 ± 0.17 | high and comparable with that of CCNU | 75 | 60 | 60 | 60 | 90 | 30 | 60 | 60 | complete absence |
